Experimental data from US20240101576A1, “HETEROCYCLIC INHIBITORS OF EGFR AND/OR HER2, FOR USE IN THE TREATMENT OF CANCER” (Scorpion Therapeutics, Inc., priority 2020, published 2024).
pIC50: −log10 of the molar value.

Columns and labels:
Assay type in all cases: cell-based
[1] = biological target: T1, EGFR WT (Ba/F3 cells) (Homo sapiens, UniProt P00533); assay: Inhibitor activity on EGFR-dependent cell growth (CellTiter-Glo, 72 h), Ba/F3 EGFR WT; settings: read-out: BaF3 WT IC50
T1 construct: expressed in transfected cells; host or cells: Ba/F3 (murine pro-B cells), retroviral transduction, puromycin selection, maintained with EGF
Method in brief: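 This growth assay used Ba/F3 cells that depend on wild-type EGFR and are kept in EGF without IL3. Compounds were made up as 10 mM DMSO stocks and diluted 3-fold over 10 points. 120 nL went onto 600 cells/well. After 72 hours, 40 μL CellTiter-Glo was added and luminescence read on EnVision after 30 min.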

[2] = biological target: T2, EGFR exon 20 ASV Ins V769_D770 (Ba/F3 cells) (Homo sapiens, UniProt P00533, INS769ASV); assay: Inhibitor activity on EGFR-dependent cell growth (CellTiter-Glo, 72 h), Ba/F3 EGFR exon 20 ASV Ins; settings: read-out: BaF3 ASV IC50
T2 construct: expressed in transfected cells; host or cells: Ba/F3 (murine pro-B cells), retroviral transduction, puromycin selection, IL3-independent pool
Method in brief: (§1)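 IC50s derive from a sigmoidal dose–response fit of CellTiter-Glo signal. The signal was normalised between […]-treated cells and cell-free medium. Ba/F3 mutant-EGFR cells, seeded at 400–800/well depending on the line, had 72 h of exposure to a 10-point, 3-fold compound series.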

[3] = biological target: T3, EGFR exon 20 NPG Ins D770_N771 (Ba/F3 cells) (Homo sapiens, UniProt P00533, INS770NPG); assay: Inhibitor activity on EGFR-dependent cell growth (CellTiter-Glo, 72 h), Ba/F3 EGFR exon 20 NPG Ins; settings: read-out: BaF3 NPG IC50
T3 construct: expressed in transfected cells; host or cells: Ba/F3 (murine pro-B cells), retroviral transduction, puromycin selection, IL3-independent pool
Description: Example A. Inhibitor Activity on EGFR-Dependent Cell Growth
Cell lines are generated by transducing Ba/F3 cells with retroviruses containing vectors with EGFR WT, EGFR L858R, EGFR exon 19del, EGFR L858R/C797S, EGFR exon 20 NPG Ins D770_N771, EGFR exon 20 ASV Ins V769_D770, EGFR exon 20 SVD Ins D770_N771, or EGFR exon 20 FQEA Ins A763_V764 genes and a puromycin selection marker. Transduced cells are selected with puromycin for 7 days and are then be transferred into culture media without Interleukin 3 (IL3). EGFR WT cells are maintained with supplemental EGF. Surviving cells are confirmed to express EGFR by Western blot and maintained as a pool. The IC50 date were included in Table 6 and Table 7.
1.1 Cells are harvested from flask into cell culture medium and the cell number counted.
1.2 Cells are diluted with culture medium to the desired density and 40 μL of cell suspension is added into each well of 384-well cell culture plate and the seeding density is 800 (FQEA, exon 19del), 600 (WT, NPG, L858R/C797S), or 400 (ASV, SVD, L858R) cells/well.
2 Compound Preparation and Treatment
2.1 Test compounds are dissolved to 10 mM in a DMSO stock solution. 45 μL of stock solution is transferred to a 384 polypropylene plate (pp-plate). Perform 3-fold, 10-point dilution via transferring 15 μL compound into 30 μL DMSO using a TECAN (EVO200) liquid handler.
2.2 Spin plates at room temperature at 1,000 RPM for 1 minute.
2.3 Transfer 120 nL of diluted compound from compound source plate into the cell plate.
2.4 After compound treatment for 72 hours, perform CTG detection for compound treatment plates as described in “Detection” section.
3.1 Plates are removed from incubators and equilibrated at room temperature for 15 minutes.
3.2 Thaw the CellTiter Glo reagents and allow to equilibrate to room temperature before the experiment.
3.3 Add 40 μL of CellTiter-Glo reagent into each well (at 1:1 to culture medium). Then place the plates at room temperature for 30 min followed by reading on EnVision.
4.1 Inhibition activity is calculated following the formula below:
% Inhibition=100×(LumHC−LumSample)/(LumHC−LumLC) • where HC is obtained from cells treated with 0.1% DMSO only; and LC is obtained from culture medium only.
4.2 2. Calculate the IC50 by fitting the Curve using Xlfit (v5.3.1.3), equation 201.
Y=Bottom+(Top−Bottom)/(1+10^((Log IC50−X)*HillSlope))

[4] = biological target: T4, EGFR exon 20 SVD Ins D770_N771 (Ba/F3 cells) (Homo sapiens, UniProt P00533, INS770SVD); assay: Inhibitor activity on EGFR-dependent cell growth (CellTiter-Glo, 72 h), Ba/F3 EGFR exon 20 SVD Ins; settings: read-out: BaF3 SVD IC50
T4 construct: expressed in transfected cells; host or cells: Ba/F3 (murine pro-B cells), retroviral transduction, puromycin selection, IL3-independent pool
Method in brief: as §1

[5] = biological target: T5, EGFR exon 20 FQEA Ins A763_V764 (Ba/F3 cells) (Homo sapiens, UniProt P00533, INS763FQEA); assay: Inhibitor activity on EGFR-dependent cell growth (CellTiter-Glo, 72 h), Ba/F3 EGFR exon 20 FQEA Ins; settings: read-out: BaF3 FQEA IC50
T5 construct: expressed in transfected cells; host or cells: Ba/F3 (murine pro-B cells), retroviral transduction, puromycin selection, IL3-independent pool
Method in brief: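 Cell viability was measured by CellTiter-Glo after a three-day treatment. The IL3-free Ba/F3 lines carried L858R, L858R/C797S, exon 19 deletion or FQEA insertion EGFR and were seeded at 400, 600, 800 and 800 cells/well respectively.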

T1 sequence (P00533 25-1210): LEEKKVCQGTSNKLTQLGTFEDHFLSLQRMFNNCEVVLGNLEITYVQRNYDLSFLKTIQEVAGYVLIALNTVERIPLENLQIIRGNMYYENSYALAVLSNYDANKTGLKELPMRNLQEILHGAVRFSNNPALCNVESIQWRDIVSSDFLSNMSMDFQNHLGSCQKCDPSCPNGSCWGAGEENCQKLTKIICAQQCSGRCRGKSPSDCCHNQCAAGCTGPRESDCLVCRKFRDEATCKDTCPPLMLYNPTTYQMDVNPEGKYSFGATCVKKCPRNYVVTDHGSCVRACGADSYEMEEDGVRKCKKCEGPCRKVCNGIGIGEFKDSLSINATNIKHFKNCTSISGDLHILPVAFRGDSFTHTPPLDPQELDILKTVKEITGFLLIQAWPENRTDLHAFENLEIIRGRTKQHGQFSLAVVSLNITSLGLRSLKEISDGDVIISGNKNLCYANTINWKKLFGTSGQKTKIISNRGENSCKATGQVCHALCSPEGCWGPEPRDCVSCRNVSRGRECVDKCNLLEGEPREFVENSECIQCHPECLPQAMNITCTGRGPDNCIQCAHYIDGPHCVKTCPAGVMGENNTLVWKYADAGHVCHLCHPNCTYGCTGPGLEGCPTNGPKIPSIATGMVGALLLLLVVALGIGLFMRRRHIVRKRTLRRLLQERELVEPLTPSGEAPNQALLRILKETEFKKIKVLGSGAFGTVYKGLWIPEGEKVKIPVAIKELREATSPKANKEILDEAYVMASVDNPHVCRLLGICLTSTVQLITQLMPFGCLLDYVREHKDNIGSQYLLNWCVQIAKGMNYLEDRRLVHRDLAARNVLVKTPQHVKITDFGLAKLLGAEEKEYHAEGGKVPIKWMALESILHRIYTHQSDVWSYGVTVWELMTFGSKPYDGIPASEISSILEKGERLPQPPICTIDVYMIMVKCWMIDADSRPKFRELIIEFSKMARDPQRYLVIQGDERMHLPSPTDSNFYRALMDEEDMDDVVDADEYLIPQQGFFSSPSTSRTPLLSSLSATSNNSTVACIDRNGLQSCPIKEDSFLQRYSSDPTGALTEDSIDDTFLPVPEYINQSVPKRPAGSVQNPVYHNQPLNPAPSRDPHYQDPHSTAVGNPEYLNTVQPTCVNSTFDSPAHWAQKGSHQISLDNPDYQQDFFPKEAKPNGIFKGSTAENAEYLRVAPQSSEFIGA
T4 sequence (P00533 with tags, fused parts or gaps INS770SVD): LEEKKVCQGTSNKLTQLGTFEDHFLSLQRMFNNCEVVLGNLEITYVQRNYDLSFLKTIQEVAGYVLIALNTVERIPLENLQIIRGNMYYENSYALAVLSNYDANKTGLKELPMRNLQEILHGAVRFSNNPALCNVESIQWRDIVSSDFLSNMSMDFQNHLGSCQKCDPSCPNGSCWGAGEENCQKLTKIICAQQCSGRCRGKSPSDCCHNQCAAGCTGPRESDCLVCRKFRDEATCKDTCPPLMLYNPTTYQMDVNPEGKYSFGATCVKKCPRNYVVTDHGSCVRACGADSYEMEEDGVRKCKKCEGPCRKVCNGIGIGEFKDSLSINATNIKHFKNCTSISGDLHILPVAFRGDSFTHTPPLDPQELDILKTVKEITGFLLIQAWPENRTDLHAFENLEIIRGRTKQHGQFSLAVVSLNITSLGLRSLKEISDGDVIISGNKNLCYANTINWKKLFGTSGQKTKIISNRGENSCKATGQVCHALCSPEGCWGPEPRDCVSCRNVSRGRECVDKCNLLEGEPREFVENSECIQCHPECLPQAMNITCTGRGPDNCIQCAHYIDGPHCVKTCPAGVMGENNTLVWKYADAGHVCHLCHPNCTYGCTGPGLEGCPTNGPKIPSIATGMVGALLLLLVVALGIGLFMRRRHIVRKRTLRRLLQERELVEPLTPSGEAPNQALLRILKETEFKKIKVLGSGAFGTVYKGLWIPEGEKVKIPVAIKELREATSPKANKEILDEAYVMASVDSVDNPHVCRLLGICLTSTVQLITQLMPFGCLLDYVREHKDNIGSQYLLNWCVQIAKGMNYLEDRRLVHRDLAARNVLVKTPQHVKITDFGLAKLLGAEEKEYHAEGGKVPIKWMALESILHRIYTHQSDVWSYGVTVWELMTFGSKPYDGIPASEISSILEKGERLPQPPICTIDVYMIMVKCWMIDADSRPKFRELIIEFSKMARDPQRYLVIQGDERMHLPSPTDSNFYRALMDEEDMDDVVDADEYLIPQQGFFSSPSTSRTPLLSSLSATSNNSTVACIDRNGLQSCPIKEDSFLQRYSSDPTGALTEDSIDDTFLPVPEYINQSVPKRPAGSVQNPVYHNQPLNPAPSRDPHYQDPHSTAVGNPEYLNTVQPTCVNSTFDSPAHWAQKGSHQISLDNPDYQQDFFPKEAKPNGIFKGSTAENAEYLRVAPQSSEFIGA
T5 sequence (P00533 with tags, fused parts or gaps INS763FQEA): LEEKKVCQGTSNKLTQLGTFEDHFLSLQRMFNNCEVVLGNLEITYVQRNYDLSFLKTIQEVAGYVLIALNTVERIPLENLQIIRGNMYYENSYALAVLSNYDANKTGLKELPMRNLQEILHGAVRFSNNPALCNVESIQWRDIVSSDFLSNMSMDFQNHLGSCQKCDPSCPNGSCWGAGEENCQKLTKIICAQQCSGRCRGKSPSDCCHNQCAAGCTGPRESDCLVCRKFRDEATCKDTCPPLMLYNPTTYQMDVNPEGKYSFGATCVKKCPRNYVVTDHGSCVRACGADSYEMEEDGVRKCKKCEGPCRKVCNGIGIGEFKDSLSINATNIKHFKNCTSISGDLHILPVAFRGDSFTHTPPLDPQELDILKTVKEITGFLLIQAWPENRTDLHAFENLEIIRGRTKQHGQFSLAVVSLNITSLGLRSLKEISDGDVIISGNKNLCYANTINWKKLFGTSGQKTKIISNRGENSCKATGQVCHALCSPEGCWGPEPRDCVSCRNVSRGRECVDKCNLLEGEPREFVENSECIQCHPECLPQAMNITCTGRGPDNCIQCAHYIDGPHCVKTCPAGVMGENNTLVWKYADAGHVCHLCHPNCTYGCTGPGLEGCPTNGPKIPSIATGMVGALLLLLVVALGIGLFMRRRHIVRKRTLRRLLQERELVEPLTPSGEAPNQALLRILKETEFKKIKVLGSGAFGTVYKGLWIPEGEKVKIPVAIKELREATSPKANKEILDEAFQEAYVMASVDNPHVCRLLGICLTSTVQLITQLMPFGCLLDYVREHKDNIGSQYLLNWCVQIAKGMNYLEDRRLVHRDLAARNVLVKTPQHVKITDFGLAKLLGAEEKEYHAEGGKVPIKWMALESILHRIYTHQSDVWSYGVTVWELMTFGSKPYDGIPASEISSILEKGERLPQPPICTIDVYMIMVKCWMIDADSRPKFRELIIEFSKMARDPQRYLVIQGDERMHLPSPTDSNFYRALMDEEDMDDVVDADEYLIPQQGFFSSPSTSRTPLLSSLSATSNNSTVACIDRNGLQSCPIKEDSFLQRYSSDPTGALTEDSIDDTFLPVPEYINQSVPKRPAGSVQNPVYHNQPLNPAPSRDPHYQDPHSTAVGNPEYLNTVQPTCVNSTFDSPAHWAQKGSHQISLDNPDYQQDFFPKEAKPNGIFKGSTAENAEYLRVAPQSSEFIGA
T3 sequence (P00533 with tags, fused parts or gaps INS770NPG): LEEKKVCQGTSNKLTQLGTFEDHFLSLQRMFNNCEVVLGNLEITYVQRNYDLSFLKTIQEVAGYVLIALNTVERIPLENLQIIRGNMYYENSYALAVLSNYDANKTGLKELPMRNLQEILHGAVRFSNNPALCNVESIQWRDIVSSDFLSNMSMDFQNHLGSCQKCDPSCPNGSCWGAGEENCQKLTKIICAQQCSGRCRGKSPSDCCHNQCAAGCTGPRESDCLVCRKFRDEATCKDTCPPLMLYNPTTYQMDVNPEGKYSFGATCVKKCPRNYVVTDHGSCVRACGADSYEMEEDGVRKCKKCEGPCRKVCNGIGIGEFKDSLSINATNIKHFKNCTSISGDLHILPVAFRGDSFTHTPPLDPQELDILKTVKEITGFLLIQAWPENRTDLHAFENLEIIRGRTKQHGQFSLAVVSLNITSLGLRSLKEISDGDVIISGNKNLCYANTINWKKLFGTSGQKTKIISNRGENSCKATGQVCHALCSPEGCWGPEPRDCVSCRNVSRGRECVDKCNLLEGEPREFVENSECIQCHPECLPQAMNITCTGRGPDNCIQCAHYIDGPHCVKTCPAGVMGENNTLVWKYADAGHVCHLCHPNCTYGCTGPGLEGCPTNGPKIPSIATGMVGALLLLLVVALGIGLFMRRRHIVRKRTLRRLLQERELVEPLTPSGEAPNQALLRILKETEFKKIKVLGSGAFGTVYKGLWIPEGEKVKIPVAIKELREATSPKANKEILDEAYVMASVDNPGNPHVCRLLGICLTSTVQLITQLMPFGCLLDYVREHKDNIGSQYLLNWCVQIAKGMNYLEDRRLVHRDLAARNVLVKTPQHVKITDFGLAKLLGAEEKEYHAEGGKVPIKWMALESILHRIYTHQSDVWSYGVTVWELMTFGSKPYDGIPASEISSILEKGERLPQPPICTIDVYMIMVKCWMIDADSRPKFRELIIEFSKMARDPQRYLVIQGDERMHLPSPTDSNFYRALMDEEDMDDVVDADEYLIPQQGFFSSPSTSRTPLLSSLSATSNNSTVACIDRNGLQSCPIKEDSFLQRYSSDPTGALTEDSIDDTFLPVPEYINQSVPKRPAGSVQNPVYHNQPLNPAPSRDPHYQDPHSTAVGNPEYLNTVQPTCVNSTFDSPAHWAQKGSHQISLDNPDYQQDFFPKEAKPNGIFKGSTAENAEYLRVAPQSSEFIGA

Row | pIC50 [1] | pIC50 [2] | pIC50 [3] | pIC50 [4] | pIC50 [5] | SMILES
1 | 6.00 to 7.00 | 6.00 to 7.00 | > 7.00 | 6.00 to 7.00 |  | COC(=O)N1CCC2(CNC(=O)c3c2[nH]c(-c2ccncc2F)c3Nc2cccc(Cl)c2OC)C1 (single isomer, unassigned) [Compound 497]
2 | < 6.00 | 6.00 to 7.00 | 6.00 to 7.00 | 6.00 to 7.00 |  | COc1c(Cl)cccc1Nc1c(-c2ccncc2F)[nH]c2c1C(=O)NCC2C[C@H]1CO[C@H](CN(C)C)CO1 (single isomer, unassigned) [Compound 564, (7R*)-3-[(3-chloro-2-methoxyphenyl)amino]-7-{[(2S,5R)-5-[(dimethylamino)methyl]-1,4-dioxan-2-yl]methyl}-2-(3-fluoropyridin-4-yl)-1H,5H,6H,7H-pyrrolo[3,2-c]pyridin-4-one]
3 | < 6.00 | < 6.00 |  | < 6.00 | < 6.00 | C=CC[C@H]1CNC(=O)c2c1[nH]c(-c1ccncc1F)c2Nc1cccc(Cl)c1OC [compound 811]
4 | < 6.00 | 6.00 to 7.00 |  | 6.00 to 7.00 | 6.00 to 7.00 | COc1c(Cl)cccc1Nc1c(-c2ccncc2F)[nH]c2c1C(=O)NC[C@H]2CCF [compound 812]
5 | < 6.00 | 6.00 to 7.00 |  | 6.00 to 7.00 | 6.00 to 7.00 | COc1c(Cl)cccc1Nc1c(-c2ccncc2F)[nH]c2c1C(=O)NC[C@@H]2CCF [compound 813]
6 | < 6.00 | 6.00 to 7.00 |  | 6.00 to 7.00 | 6.00 to 7.00 | COc1c(Cl)cccc1Nc1c(-c2ccncc2F)[nH]c2c1C(=O)NC[C@]21CCN(C)C1 [compound 815]
7 | < 6.00 | 6.00 to 7.00 |  | 6.00 to 7.00 | 6.00 to 7.00 | COc1c(Cl)cccc1Nc1c(-c2ccncc2F)[nH]c2c1C(=O)NC[C@@]21CCN(C)C1 [compound 816]
8 | < 6.00 | 6.00 to 7.00 |  | 6.00 to 7.00 | 6.00 to 7.00 | COc1c(Cl)cccc1Nc1c(-c2ccncc2F)[nH]c2c1C(=O)NC[C@]21CCN(CC(F)(F)F)C1 [compound 818]

More lines, now with the values behind:

Row | SMILES | pIC50 [1] | pIC50 [2] | pIC50 [3] | pIC50 [4] | pIC50 [5]
9 | COc1c(Cl)cccc1Nc1c(-c2ccncc2F)[nH]c2c1C(=O)NCC2C[C@@H]1CO[C@@H](CN(C)C)CO1 (single isomer, unassigned) [Compound 563, (7R*)-3-[(3-chloro-2-methoxyphenyl)amino]-7-{[(2R,5S)-5-[(dimethylamino)methyl]-1,4-dioxan-2-yl]methyl}-2-(3-fluoropyridin-4-yl)-1H,5H,6H,7H-pyrrolo[3,2-c]pyridin-4-one] | < 6.00 | 6.00 to 7.00 | 6.00 to 7.00 | 6.00 to 7.00 | 
10 | COc1c(Cl)cccc1Nc1c(-c2ccncn2)[nH]c2c1C(=O)NCC2C[C@H]1COCCO1 (single isomer, unassigned) [Compound 574, (7R*)-3-[(3-chloro-2-methoxyphenyl)amino]-7-[(2S)-1,4-dioxan-2-ylmethyl]-2-(pyrimidin-4-yl)-1H,5H,6H,7H-pyrrolo[3,2-c]pyridin-4-one] | < 6.00 |  | > 7.00 |  | 
11 | COc1c(Cl)cccc1Nc1c(-c2ccncn2)[nH]c2c1C(=O)NC[C@@H]2C[C@@H]1COCCO1 [Compound 528, (7S)-3-[(3-chloro-2-methoxyphenyl)amino]-7-[(2R)-1,4-dioxan-2-ylmethyl]-2-(pyrimidin-4-yl)-1H,5H,6H,7H-pyrrolo[3,2-c]pyridin-4-one] | < 6.00 |  | > 7.00 |  | 
12 | COCCOc1cncnc1-c1[nH]c2c(c1Nc1cccc(F)c1OC)C(=O)NCC2 [Compound 676, 3-[(3-fluoro-2-methoxyphenyl)amino]-2-[5-(2-methoxyethoxy)pyrimidin-4-yl]-1H,5H,6H,7H-pyrrolo[3,2-c]pyridin-4-one] | < 6.00 |  | < 6.00 |  | 
13 | COc1c(Cl)cccc1Nc1c(-c2ccnc3ccc(C4CC4)nc23)[nH]c2c1C(=O)NCC2 [compound 752, 3-[(3-chloro-2-methoxyphenyl)amino]-2-(6-cyclopropyl-1,5-naphthyridin-4-yl)-1H,5H,6H,7H-pyrrolo[3,2-c]pyridin-4-one] | > 7.00 | > 7.00 |  | > 7.00 | > 7.00
14 | COc1c(Cl)cccc1Nc1c(-c2ccnc3ccc(OCC4CC4)nc23)[nH]c2c1C(=O)NCC2 [compound 755, 3-[(3-chloro-2-methoxyphenyl)amino]-2-[6-(cyclopropylmethoxy)-1,5-naphthyridin-4-yl]-1H,5H,6H,7H-pyrrolo[3,2-c]pyridin-4-one] | 6.00 to 7.00 | > 7.00 |  | > 7.00 | > 7.00
15 | COc1c(Cl)cccc1Nc1c(-c2ccnc3ccc(OCC4CCC4)nc23)[nH]c2c1C(=O)NCC2 [compound 756, 3-[(3-chloro-2-methoxyphenyl)amino]-2-[6-(cyclobutylmethoxy)-1,5-naphthyridin-4-yl]-1H,5H,6H,7H-pyrrolo[3,2-c]pyridin-4-one] | 6.00 to 7.00 | > 7.00 |  | 6.00 to 7.00 | 6.00 to 7.00
16 | COc1c(Cl)cccc1Nc1c(-c2ccnc3ccc(OCC4(F)CC4)nc23)[nH]c2c1C(=O)NCC2 [compound 759, 3-[(3-chloro-2-methoxyphenyl)amino]-2-[6-[(1-fluorocyclopropyl)methoxy]-1,5-naphthyridin-4-yl]-1H,5H,6H,7H-pyrrolo[3,2-c]pyridin-4-one] | 6.00 to 7.00 | > 7.00 |  | > 7.00 | > 7.00
17 | COc1c(Cl)cccc1Nc1c(-c2ccnc3ccc(OC(C)C)nc23)[nH]c2c1C(=O)NCC2 [compound 762, 3-[(3-chloro-2-methoxyphenyl)amino]-2-(6-isopropoxy-1,5-naphthyridin-4-yl)-1H,5H,6H,7H-pyrrolo[3,2-c]pyridin-4-one] | > 7.00 | > 7.00 |  | > 7.00 | > 7.00
18 | COc1c(Cl)cccc1Nc1c(-c2ccnc3ccc(OC4CCC4)nc23)[nH]c2c1C(=O)NCC2 [compound 768, 3-[(3-chloro-2-methoxyphenyl)amino]-2-(6-cyclobutoxy-1,5-naphthyridin-4-yl)-1H,5H,6H,7H-pyrrolo[3,2-c] pyridin-4-one] | 6.00 to 7.00 | > 7.00 |  | > 7.00 | > 7.00
19 | COc1cnc2c(-c3[nH]c4c(c3Nc3cccc(Cl)c3OC)C(=O)NCC4)ccnc2c1 [compound 814] | > 7.00 | > 7.00 |  | > 7.00 | > 7.00
20 | COCC[C@H]1CNC(=O)c2c1[nH]c(-c1ccncc1F)c2Nc1cccc(F)c1C [compound 824] | < 6.00 | 6.00 to 7.00 |  | 6.00 to 7.00 | 6.00 to 7.00
21 | COc1ccc2ncc(F)c(-c3[nH]c4c(c3Nc3cccc(Cl)c3OC)C(=O)NCC4)c2n1 [compound 829, 3-[(3-chloro-2-methoxyphenyl)amino]-2-(3-fluoro-6-methoxy-1,5-naphthyridin-4-yl)-1H,5H,6H,7H-pyrrolo[3,2-c]pyridin-4-one] | < 6.00 | < 6.00 |  | < 6.00 | < 6.00
